Experimental data reported in patent US20200148803A1, “POLYMERIZABLE MULTIFUNCTIONAL ANTIMICROBIAL QUATERNARY AMMONIUM MONOMERS, METHODS OF SYNTHESIS, AND USES THEREOF” (ADA Foundation, priority 2018, published 2020).

Assays:
[1] = Sessile drop water contact angle (CA) on resin pellets; format: physicochemical
Description: Experimental resin (UPE) was formulated from the commercially available monomers urethane dimethacrylate (UDMA, 50.91% w/w), polyethylene glycol extended urethane dimethacrylate (PEG-U, 18.18% w/w), and ethyl 2-(hydroxymethyl)acrylate (EHMA, 30.91% w/w). A conventional visible light initiator system comprised of camphorquinone (0.2% w/w) and ethyl-4-N,N-dimethylamino benzoate (4EDMAB, 0.8% w/w) was utilized. […] Copolymer specimens (beams) were prepared by depositing UPE (UPE resin control) and AM-UPE resins into glass molds (2 mm×2 mm×25 mm) and photopolymerizing them with a dental curing light (Triad 2000, Dentsply, Charlotte, N.C., USA) for 2 minutes from two sides. Copolymer specimens (pellets) were prepared by depositing UPE and AM-UPE resins into a stainless-steel mold (1 mm×16 mm), sandwiched between two sheets of Mylar film and two glass slides and photopolymerized in the same manner as the beam samples. Degree of vinyl conversion (DVC) of UPE and AM-UPE resins was determined utilizing beam samples by collecting the near infra-red (NIR) spectra (Nexus 670, ThermoFisher, Madison, Wis., USA) before and 24 h after polymerization and calculating the reduction in absorption band at 6165 cm^−1 corresponding to the vinyl (C═C—H) overtone signal. By maintaining a constant specimen thickness, a need for an invariant internal standard was eliminated. The DVC was calculated as: […]
where Area(polymer) and Area(monomer) correspond to the areas under 6165 cm^−1 peaks after and before the polymerization, respectively. After DVC analysis, flexural strength (FS) and elastic modulus (E) of beam specimen were determined employing the Universal Testing Machine (Instron 5500R, Instron Corp., Canton, Mass., USA). The load was applied (at cross-head speed of 1 mm/min) to the center of a specimen positioned on a test device with supports 20 mm apart. The FS and E of the specimens (three replicates/experimental group) was calculated as instructed in the ISO4049:2009 document. Changes in hydrophilicity/hydrophobicity of UPE resins due to the introduction of AM monomers were assessed on pellet specimen by sessile drop contact angle (CA) measurements (drop shape analyzer DSA100, Krüss GmbH, Hamburg, Germany). Following the deposition of 4 μL water droplets on the resin pellets, the pellets were imaged after 1 min resting time with a camera at the points of intersection (three-phase contact points) between the drop contour and the projection of the surface (baseline). The CA water values were calculated employing the Krüss Advance software. At least four repetitive measurements were performed in each group. Analysis of variance (ANOVA) and Newman-Keuls multiple paired comparisons (at 95% confidence level) were used to analyze the experimental data as a function of resin composition and establish a statistical significance of differences between the experimental groups (WINKS 7.0.9, TexaSoft, Cedar Hills, Tex., USA).

[2] = tested on: mouse subcutaneous connective tissue fibroblasts (NCTC clone 929, CCL1); assay: Direct contact cytotoxicity, LIVE/DEAD viability, CCL1 cells; format: cell-based
[3] = tested on: human gingival fibroblasts (HGF); assay: Direct contact cytotoxicity, LIVE/DEAD viability, HGF cells; format: cell-based
Description: (§1) Immortalized human gingival fibroblasts (HGF) were purchased from Applied Biological Materials, Inc. (Richmond, British Columbia, Canada). […] For experiments, cells were obtained from a subconfluent stock culture.
(§2) Direct contact cytotoxicity testing was conducted as previously described^7, 8. Briefly, cells were exposed to two-fold serial dilutions of AMadh series monomers or AMsil series monomers to approximate the maximum possible exposure, (Table 9). Table 9 illustrates biocompatibility testing using maximum possible monomer exposure (mmol/L), assuming 7% mass fraction in the restorative with a maximum of 2% leaching. To account for multiplicity and variable size of restorations, a two- and four-fold greater dilution was also included in the testing. After 24 and 72 h, cells were assessed for cell viability using the LIVE/DEAD® Viability/Cytotoxicity kit (Life Technologies, Corp., Grand Island, N.Y.). Cellular metabolic activity was subsequently assessed using the CellTiter® AQueous One Solution Reagent (Promega, Corp., Madison, Wis.). Negative controls were without the novel monomer and/or cells. Mean+standard error was obtained from five independent replicates tested in triplicate.

CCL1 cells = assay: Cellular metabolic activity (CellTiter AQueous One Solution Reagent), CCL1 cells; format: cell-based
[4] = tested on: human gingival fibroblasts (HGF); assay: Cellular metabolic activity (CellTiter AQueous One Solution Reagent), HGF cells; format: cell-based
Description: as §1, §2

[5] = two-fold serial dilutions, 24 h and 72 h

In the case of C=C(C)C(=O)OCC[N+](C)(C)CCCCCCCCCCC(=O)O.[Br-] [AMadh2, 10-carboxy-N-(2-(methacryloyloxy)ethyl)-N,N-dimethyldecan-1-aminium bromide], the “effect on hydrophobic-hydrophilic properties of the copolymer” value ([1]; 10 mass percent in UPE resin) is reported as “a shift towards the lower CA values”, the “reduction of water CA relative to UPE resin control” value ([1]; 10 mass percent in UPE resin) is reported as 18 ° and the “effect on hydrophobic-hydrophilic properties of the copolymer” value ([1]; 20 mass percent in UPE resin) is reported as “did not alter the hydrophobic-hydrophilic properties”. The “percentage of live CCL1 cells, fold lower compared to concentrations ≤4.4 mmol/L” value ([2]; 8.8 mmol/L, 72 h exposure) was “at least 10 fold”, the “least squares mean of live CCL1 cells, fold lower than at lower concentrations” value ([2]; 8.8 mmol/L, independent of time) was “approx. 2 fold” and the “percent live CCL1 cells compared to control group (no monomer)” value ([2]; ≤2.2 mmol/L (24 h) and ≤0.28 mmol/L (72 h)) was “increased”. For the same molecule, the “effect of concentration on the number of dead CCL1 cells” value ([2]; ≤8.8 mmol/L) was “not statistically different”, the “effect of exposure time on HGF live cells, difference of means” value ([3]; 24 h vs 72 h, regardless of concentration) was roughly 16% and the “effect of monomer concentration on HGF cell viability” value [3, 5] was “no significant effect”. The “CCL1 cell metabolic activity” value (CCL1 cells; 24 h, 8.8 mm/L) was “reduced”, the “CCL1 cell metabolic activity” value (CCL1 cells; 72 h) was “markedly reduced” and the “effect of monomer concentration on CCL1 metabolic activity” value (CCL1 cells; [5]) was “exerted an effect”. The “time of exposure decreased HGF metabolic activity, difference of means” value ([4]; 24 h vs 72 h) was 19.01 and the “effect on metabolic activity of HGF cells” value [4, 5] was “not affected by the level of AMadh2”.
